Data from patent US20240002397A1, “3-AMINO PYRROLIDINE AND PIPERIDINE MACROCYCLIC OREXIN RECEPTOR AGONISTS” (Merck Sharp & Dohme LLC, priority 2020, published 2024).

What follows are molecules tested against T1, human OX2R (Homo sapiens, UniProt O43614) (assay: IPOne (IP-1) orexin receptor agonist assay in CHO cells expressing human OX2R). Details: CHO, hOX2R IP-One; percentage of mean max effect of a reference compound at 1 uM with 100% activity.
T1 sequence (O43614 1-444): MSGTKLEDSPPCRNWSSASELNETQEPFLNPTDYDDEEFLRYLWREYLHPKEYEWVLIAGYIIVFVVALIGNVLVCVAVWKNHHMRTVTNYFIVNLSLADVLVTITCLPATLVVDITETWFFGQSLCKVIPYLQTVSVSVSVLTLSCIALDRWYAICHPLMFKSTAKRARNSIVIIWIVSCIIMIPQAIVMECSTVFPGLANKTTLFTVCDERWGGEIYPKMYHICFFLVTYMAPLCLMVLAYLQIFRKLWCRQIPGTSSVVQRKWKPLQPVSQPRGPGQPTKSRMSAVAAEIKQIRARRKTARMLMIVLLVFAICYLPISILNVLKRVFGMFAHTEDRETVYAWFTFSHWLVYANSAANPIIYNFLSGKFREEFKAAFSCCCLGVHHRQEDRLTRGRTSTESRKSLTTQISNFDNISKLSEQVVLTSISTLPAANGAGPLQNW

Row | Structure (SMILES) | Emax [%]
1 | Cc1cc2nc(c1)C1CCC(CC1)OCC1[C@@H](NS(C)(=O)=O)C[C@@H](C)N1C(=O)OCCO2 (stereo partly drawn) [Example 66, N-((2^1S,2^4S,5^2R,5^3S,5^5R)-1^4,5^5-dimethyl-6-oxo-3,7,10-trioxa-1(2,6)-pyridina-5(2,1)-pyrrolidina-2(1,4)-cyclohexanacyclodecaphane-5^3-yl)methanesulfonamide] | 95
2 | CCS(=O)(=O)N[C@H]1C[C@@H](C)N2C(=O)OCCCOc3cc(OC)cc(n3)C3CCC(CC3)OCC12 (stereo partly drawn) [Example 106, N-((2^1R,2^4R,5^2R,5^3S,5^5R)-1^4-methoxy-5^5-methyl-6-oxo-3,7,11-trioxa-1(2,6)-pyridina-5(2,1)-pyrrolidina-2(1,4)-cyclohex-anacycloundecaphane-5^3-yl)ethanesulfonamide] | 97.3
3 | C[C@@H]1C[C@H](NS(C)(=O)=O)C2COC3CCC(CC3)c3cc(F)cc(c3)OCCCCC(=O)N21 (stereo partly drawn) [Example 44, N-((2^1S,2^4S, 5^2R,5^3S,5^5R)-1^5-fluoro-5^5-methyl-6-oxo-3,11-dioxa-5(2,1)-pyrrolidina-1(1,3)-benzena-2(1,4)-cyclohexana-cyclounde-caphane-5^3-yl)methane-sulfonamide] | 102
4 | COc1cc2nc(c1)C1CCC(CC1)OCC1[C@@H](NS(=O)(=O)CF)C[C@@H](C)N1C(=O)OCCO2 (stereo partly drawn) [Example 104, 1-fluoro-N-((2^1R,2^4R,5^2R,5^3S,5^5R)-1^4-methoxy-5^5-methyl-6-oxo-3,7,10-trioxa-1(2, 6)-pyridina-5(2,1)-pyrro-lidina-2(1,4)-cyclohexana-cyclodecaphane-5^3-yl)methanesulfonamide] | 102
5 | COc1cc2nc(c1)[C@H]1CC[C@H](CC1)OC[C@H]1[C@@H](NS(C)(=O)=O)C[C@@H](C)N1C(=O)OCCCN2 [Example 88, N-((2^1S,2^4S,5^2R,5^3S,5^5R)-1^4-methoxy-5^5-methyl-6-oxo-3,7-dioxa-11-aza-1(2,6)-pyridina-5(2,1)-pyrrolidina-2(1,4)-cyclohexanacycloundecaphane-5^3-yl)methanesulfonamide] | 103
6 | CS(=O)(=O)N[C@H]1CCCN2C(=O)/C=C/CCOc3cccc(c3)C3CCC(CC3)OC[C@@H]12 [Example 28, N-((2^1S,2^4S,5^2R,5^3S,E)-6-oxo-3,11-dioxa-5(2,1)-piperidina-1(1,3)-benzena-2(1,4)-cyclohexanacycloundecaphan-7-en-5^3-yl)methanesulfonamide] | 102
7 | C[C@@H]1C[C@H](NS(C)(=O)=O)[C@@H]2COC3CCC(CC3)c3ccccc3CCOC(=O)N12 [Example 5, N-((2^1R,2^4R,5^2R,5^3S, 5^5R)-5^5-methyl-6-oxo-3,7-dioxa-5(2,1)-pyrrolidina-1(1,2)-benzena-2(1,4)-cyclo-hexanacyclonaphane-5^3-yl)methane sulfonamide] | 100
8 | C[C@@H]1C[C@H](NS(C)(=O)=O)C2COC3CCC(CC3)c3nc(ccc3OC(F)(F)F)OCCCOC(=O)N21 (stereo partly drawn) [Example 59, N-((2^1S,2^4S,5^2R,5^3S,5^5R)-5^5-methyl-6-oxo-1^3-(trifluoromethoxy)-3,7,11-trioxa-1(2,6)-pyridina-5(2,1)-pyrrolidina-2(1,4)-cyclohexanacycloundecaphane-5^3-yl)methanesulfonamide] | 96.9
9 | C[C@@H]1C[C@H](NS(C)(=O)=O)C2COC3CCC(CC3)c3ccc(F)c(n3)OCCOC(=O)N21 (stereo partly drawn) [Example 56, N-((2^1S,2^4S,5^2R,5^3S,5^5R)-1^5-fluoro-5^5-methyl-6-oxo-3,7,10-trioxa-1(2,6)-pyridina-5(2,1)-pyrrolidina-2(1,4)-cyclohexanacyclodecaphane-5^3-yl)methanesulfonamide] | 98.2
10 | C[C@@H]1C[C@H](NS(C)(=O)=O)C2CO[C@H]3CC=C(CC3)c3cccc(c3F)OCCCOC(=O)N21 (stereo partly drawn) [Example 46, N-((2^1S,2^4S, 5^2R,5^3S,5^5R)-1^2-fluoro-5^5-methyl-6-oxo-3,7,11-trioxa-5(2,1)-pyrrolidina-1(1,3)-benzena-2(1,4)-cyclohexana-cyclounde-caphan-2^1-en-5^3-yl)methane-sulfonamide] | 102
11 | CC(C)Oc1ccc2cc1C1CCC(CC1)OCC1[C@@H](NS(C)(=O)=O)C[C@@H](C)N1C(=O)OCCO2 (stereo partly drawn) [Example 62, N-((2^1S,2^4S,5^2R,5^3S,5^5R)-1^6-isopropoxy-5^5-methyl-6-oxo-3,7,10-trioxa-5(2,1)-pyrrolidina-1(1,3)-benzena-2(1,4)-cyclohexanacyclodecaphane-5^3-yl)methanesulfonamide] | 91.2
12 | COc1ccc2nc1OCCCOC(=O)N1C(COC3CCC2CC3)[C@@H](NS(C)(=O)=O)C[C@H]1C (stereo partly drawn) [Example 76, N-((2^1S,2^4S,5^2R,5^3S,5^5R)-1^5-methoxy-5^5-methyl-6-oxo-3,7,11-trioxa-1(2,6)-pyridina-5(2,1)-pyrrolidina-2(1,4)-cyclohexanacycloundecaphane-5^3-yl)methanesulfonamide] | 101
13 | C[C@@H]1C[C@H](NS(=O)(=O)N(C)C)[C@@H]2COC3CCC(CC3)c3cccc(c3)OCCCCCC(=O)N12 [Example 8, N′-((2^1S,2^4S,5^2R,5^3S,5^5R)-5^5-methyl-6-oxo-3,12-dioxa-5(2,1)-pyrrolidina-1(1,3)-benzena-2(1,4)-cyclohexanacyclododecaphane-5^3-yl)-N,N-dimethyl-sulfamide] | 100
14 | C[C@@H]1C[C@H](NS(C)(=O)=O)[C@@H]2COC3CCC(CC3)c3ccccc3/C=C/OC(=O)N12 [Example 2, N-((2^1R,2^4R,5^2R,5^3S,5^5R,E)-5^5-methyl-6-oxo-3,7-dioxa-5(2,1)-pyrrolidina-1(1,2)-benzena-2(1,4)-cyclohexanacyclonaphan-8-en-5^3-yl)methanesulfonamide] | 102
15 | CCOc1cc2nc(c1)C1CCC(CC1)OCC1[C@@H](NS(C)(=O)=O)C[C@@H](C)N1C(=O)OCCCO2 (stereo partly drawn) [Example 78, N-((2^1S,2^4S,5^2R,5^3S,5^5R)-1^4-ethoxy-5^5-methyl-6-oxo-3,7,11-trioxa-1(2,6)-pyridina-5(2,1)-pyrrolidina-2(1,4)-cyclohexanacycloundecaphane-5^3-yl)methanesulfonamide] | 100

Same assay, conditions: hOX2R IP-One; percentage of mean max effect of a reference compound at 1 uM with 100% activity

Row | Structure (SMILES) | Emax (%)
16 | CN(C)S(=O)(=O)NC1CCCN2C(=O)OCCc3ccccc3C3CCC(CC3)OCC12 (single isomer, unassigned) [Example 40, N′-((2^1S,2^4S,5^2R,5^3S)-6-oxo-3,7-dioxa-5(2,1)-piperidina-1(1,2)-benzena-2(1,4)-cyclohexanacyclononaphane-5^3-yl)-N,N-dimethyl-sulfamide] | 71.6
17 | CCS(=O)(=O)NC1CC(C)N2C(=O)OCCOc3cc(OC)cc(n3)C3CCC(CC3)OCC12 (stereo not drawn) [Example 103, N-((2^1R,2^4R,5^2R,5^3S,5^5R)-1^4-methoxy-5^5-methyl-6-oxo-3,7,10-trioxa-1(2,6)-pyridina-5(2,1)-pyrrolidina-2(1,4)-cyclohexanacyclodecaphane-5^3-yl)ethanesulfonamide] | 103.0
18 | CS(=O)(=O)NC1CCCN2C(=O)CCCOc3cccc(c3)C3CCC(C3)OCC12 (single isomer, unassigned) [Example 34, N-((2^1S,2^3R,5^2R,5^3S)-6-oxo-3,10-dioxa-5(2,1)-piperidina-1(1,3)-benzena-2(1,3)-cyclopentanacyclodecaphane-5^3-yl)methanesulfonamide] | 5.0
